Source: patent US5534498A, “Trypsin inhibitors” (Corvas International, Inc., priority 1993, dated 1996)
Residues, ends and D or L forms follow the SMILES beside them. *: point of attachment. Boc = CC(C)(C)OC(=O)*

What was measured:
Type in all cases: biochemical
human kallekrein = target: T1, human kallekrein (Homo sapiens, UniProt P03952); test: Kallikrein assay (S-2302 substrate)
T1 construct: 50 μL of 4 to 9 nM human kallekrein
Protocol: (§1) The specificity of the peptide aldehydes (8 through 12) was determined in vitro by measurement of their IC50 against other enzymes involved in hemostasis. A specific concentration of enzyme and its substrate were challenged with varying concentrations of inhibitor. […] Specific assay procedures used are presented below.
(§2) 96-well microtiter plates were prepared for use in these assays by incubating each well with 300 μL 1% bovine serum albumin (in deionized water) for 30 minutes at 37° C., then washing three times with deionized water.
(§3) The substrate was made up in deionized water prior to use.

bovine thrombin = target: T2, bovine thrombin (Bos taurus, UniProt P00735); test: Thrombin assay (S-2238 substrate)
T2 construct: 50 μL 20 nM bovine thrombin
Protocol: (§4) The specificity of the peptide aldehydes (8 through 12) was determined in vitro by measurement of their IC50 against other enzymes involved in hemostasis. A specific concentration of enzyme and its substrate were challenged with varying concentrations of inhibitor. IC50 is that concentration of inhibitor giving 50% inhibition of substrate turnover, under the assay conditions. Specific assay procedures used are presented below.
as §2
Enzyme activity was determined using as substrate, S-2238 [D-phenylalanyl-L-pipecolyl-L-arginine-p-nitroanilide dihydrochloride], purchased from Kabi Diagnostica. The substrate was made up in deionized water prior to use.
(§5) The assay was run by combining in appropriate wells 50 μL TBS and 50 μL inhibitor in TBS or TBS alone and 50 μL 20 nM bovine thrombin (or TBS as background control), incubating this mixture for 30 minutes at room temperature, adding 50 μL 1 mM S-2238, incubating for an additional 30 minutes at room temperature, then reading the absorbance of the wells at 405 nm on a microtiter plate reader set with background substraction at 650 nm.

[1] = target: T3, Activated human Protein C (Homo sapiens, UniProt P04070); test: Protein C assay (Pefachrome PC substrate)
T3 construct: from tissue
Protocol: as §1, §2
Enzyme activity was determined using as substrate, Pefachrome PC [δ-carbobenzoloxy-D-lysyl-L-prolyl-L-arginine-p-nitroanilide], purchased from Centerchem, Inc. The substrate was made up in deionized water prior to use. Protac used to activate Protein C was obtained from American Diagnostics.

human Factor XIa = target: T4, human Factor XIa (Homo sapiens, UniProt P03951); test: Factor XIa assay (S-2366 substrate)
T4 construct: 50 μL of 5 nM human Factor XIa
Protocol: as §1, §2, §3

human urokinase = target: T5, human urokinase (Homo sapiens, UniProt P00749); test: Urokinase assay (S-2444 substrate)
T5 construct: 50 μL of 270 U/mL human urokinase
Protocol: as §4, §2
Enzyme activity was determined using as substrate S-2444 [L-pyroglutamyl-L-glycyl-L-arginine-p-nitroanilide hydrochloride], purchased from Kabi Diagnostica. The substrate was made up in deionized water prior to use.
as §5, with “μL” for “μL TBS and 50 μL”, “of 270 U/mL human urokinase” for “20 nM bovine thrombin”, “control) and 50 μL TBS,” for “control),”, “S-2444,” for “S-2238,”

Factor VIIa:rTF complex = target: T6, Factor VIIa:rTF complex (Homo sapiens, UniProt P08709); test: Factor VIIa assay (S-2288 substrate)
T6 construct: 2.5 ml 400 nMhuman Factor VIIa
Protocol: as §4, §2
Enzyme activity was determined using as substrate, S-2288 [D-isoleucyl-L-prolyl-L-arginine-p-nitroanilide dihydrochloride], purchased from Kabi Diagnostica. The substrate was made up in deionized water prior to use.
Both solutions were then incubated for 30 minutes at room temperature before use in the assay.
The assay was run by combining in appropriate wells 50 μL inhibitor in TBS or TBS alone and 100 μL of Factor VIIa:rTF complex or background control, incubating this mixture for 30 minutes at room temperature, adding 50 μL of 2 mM S-2288, incubating for an additional 30 to 60 minutes at room temperature, then reading the absorbance of the wells at 405 nm on a microtiter plate reader set with background substraction at 650 nm.

[2] = target: recombinant tissue plasminogen activator (Homo sapiens, UniProt P00750); test: Tissue plasminogen activator assay (S-2288 substrate)
Protocol: as §1, §2, §3

[3] = target: bovine and human pancreatic trypsin; test: Potency: determination of inhibitor constant Ki against trypsin (S-2222 substrate, Dixon plot); details: 37° C., TBS pH 7.4, 15 min preincubation, read-out: Ki For Peptide Aldehydes Against Trypsin
Protocol: The potency and specificity of the compounds of the present invention are determined by in vitro assay methods well known in the art. […] Specifically, the inhibitor constant, Ki, of the compounds can be determined by the method of Dixon, Biochem. J. 55:170 (1953). The specificity is assessed by determination of the concentration, IC50, of compound required to give 50% inhibition of the enzymatic activity of the coagulation enzymes, kallikrein, factor XIa, factor VIIa, factor Xa, thrombin; the fibrinolysis enzymes, plasmin, tissue plasminogen activator (tPA), and urokinase (UK), and the anticoagulation enzyme, protein C. Specificity is found when the concentration of compound giving 50% inhibition of trypsin is low relative to the concentration required to give like inhibition of the other enzymes.
Enzyme activity was determined using as substrate S-2222 [N-benzoyl-L-isoleucyl-L-glutamyl-glycyl-L-arginine-p-nitroanilide hydrochloride where glutamyl side chain is 50% carboxylic acid and 50% methyl ester], purchased from Kabi Diagnostica. The substrate was made up in deionized water prior to use.
A 96-well microtiter plate was prepared for use in the assay by incubating each well with 300 μL of 1% bovine serum albumin (in deionized water) for 30 minutes at 37° C., and washing three times with deionized water.
To each well was added 50 μL TBS (0.1M Tris, 0.14M NaCl, pH 7.4), 50 μL 2.5 nM trypsin and 50 μL peptide aldehyde in TBS or TBS alone. After incubating for 15 minutes at 37° C., 50 μL of S-2222 (at 37° C.) at a specified concentration was added to each well. After mixing, the rate of substramte turnover at 37° C. was measured for 30 minutes at 405 nm (generation of p-nitroaniline). The initial S-2222 concentrations in the assay mixture were 0.45, 0.23, 0.11, 0.056, and 0.028 mM.
Ki was determined graphically using a Dixon plot, as described in Dixon, Biochem. J. 55:170 (1953).

plasmin = plasmin (Homo sapiens, UniProt P00747); test: Plasmin assay (S-2251 substrate); set-up: 50 μL 25 nM human plasmin
Protocol: as §1, §2, §3

[4] = 30 min preincubation, room temperature, tested 0.025-25 μM, Inact. = no inhibition at highest concentration
[5] = [IC50 for Trypsin/IC50 for other enzyme]×100, lower = more trypsin selective

T3 sequence (P04070 212-461 limits assumed): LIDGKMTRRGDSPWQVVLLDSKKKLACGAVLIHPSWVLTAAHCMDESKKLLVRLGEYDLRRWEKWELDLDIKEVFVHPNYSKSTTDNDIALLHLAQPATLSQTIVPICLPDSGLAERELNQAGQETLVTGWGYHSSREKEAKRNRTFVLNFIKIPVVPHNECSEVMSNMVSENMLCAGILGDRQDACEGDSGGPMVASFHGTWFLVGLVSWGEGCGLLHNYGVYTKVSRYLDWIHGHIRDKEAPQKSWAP
T3 sequence (P04070 43-197 partner limits assumed): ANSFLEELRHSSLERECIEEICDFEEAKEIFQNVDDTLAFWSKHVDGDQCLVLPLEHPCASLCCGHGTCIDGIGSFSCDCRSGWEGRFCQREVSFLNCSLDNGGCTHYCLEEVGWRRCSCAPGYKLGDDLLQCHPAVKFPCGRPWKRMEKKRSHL
Chain of plasmin (P00747 581-810 limits assumed): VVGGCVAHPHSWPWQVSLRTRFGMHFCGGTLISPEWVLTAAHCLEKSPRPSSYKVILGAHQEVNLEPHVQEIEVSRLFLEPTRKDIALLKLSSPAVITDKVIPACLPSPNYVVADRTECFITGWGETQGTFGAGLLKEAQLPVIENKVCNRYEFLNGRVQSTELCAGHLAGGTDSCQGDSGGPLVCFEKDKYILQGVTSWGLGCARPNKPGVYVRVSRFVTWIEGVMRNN
Chain of plasmin (P00747 97-580 partner limits assumed): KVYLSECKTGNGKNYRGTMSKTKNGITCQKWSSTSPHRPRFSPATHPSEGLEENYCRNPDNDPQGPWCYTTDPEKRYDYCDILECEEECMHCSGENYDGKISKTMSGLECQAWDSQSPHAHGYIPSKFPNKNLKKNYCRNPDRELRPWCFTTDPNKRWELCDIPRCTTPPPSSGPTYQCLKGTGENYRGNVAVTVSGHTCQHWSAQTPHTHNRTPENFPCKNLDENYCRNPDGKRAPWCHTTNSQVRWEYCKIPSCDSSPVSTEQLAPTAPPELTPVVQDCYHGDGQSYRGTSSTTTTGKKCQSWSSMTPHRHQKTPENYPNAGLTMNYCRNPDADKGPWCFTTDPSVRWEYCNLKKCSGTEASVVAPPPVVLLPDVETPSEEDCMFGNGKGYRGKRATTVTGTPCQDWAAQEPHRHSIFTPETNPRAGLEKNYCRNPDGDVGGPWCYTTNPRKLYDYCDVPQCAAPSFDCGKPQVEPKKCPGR
Chain of recombinant tissue plasminogen activator (P00750 36-562): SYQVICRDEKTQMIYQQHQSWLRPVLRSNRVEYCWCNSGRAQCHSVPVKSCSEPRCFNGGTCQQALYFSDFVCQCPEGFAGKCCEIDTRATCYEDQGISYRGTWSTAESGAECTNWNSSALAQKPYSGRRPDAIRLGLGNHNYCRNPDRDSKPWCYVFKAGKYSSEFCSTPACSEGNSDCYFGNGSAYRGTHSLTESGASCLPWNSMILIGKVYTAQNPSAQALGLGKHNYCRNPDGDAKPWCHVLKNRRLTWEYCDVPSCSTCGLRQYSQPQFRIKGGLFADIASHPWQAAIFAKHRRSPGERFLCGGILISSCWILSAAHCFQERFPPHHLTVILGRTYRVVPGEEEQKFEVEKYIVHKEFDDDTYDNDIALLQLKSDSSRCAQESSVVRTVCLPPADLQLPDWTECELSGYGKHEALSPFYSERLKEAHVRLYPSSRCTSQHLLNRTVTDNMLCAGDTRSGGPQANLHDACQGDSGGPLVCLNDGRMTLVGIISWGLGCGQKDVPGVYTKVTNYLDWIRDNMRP
T4 sequence (P03951 388-625 limits assumed): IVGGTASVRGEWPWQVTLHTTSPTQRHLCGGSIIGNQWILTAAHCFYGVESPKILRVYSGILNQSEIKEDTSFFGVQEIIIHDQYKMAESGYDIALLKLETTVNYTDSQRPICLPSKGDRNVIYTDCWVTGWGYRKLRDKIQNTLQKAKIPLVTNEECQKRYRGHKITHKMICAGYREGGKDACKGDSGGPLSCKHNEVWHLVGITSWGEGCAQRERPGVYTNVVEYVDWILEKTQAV
T4 sequence (P03951 19-387 partner limits assumed): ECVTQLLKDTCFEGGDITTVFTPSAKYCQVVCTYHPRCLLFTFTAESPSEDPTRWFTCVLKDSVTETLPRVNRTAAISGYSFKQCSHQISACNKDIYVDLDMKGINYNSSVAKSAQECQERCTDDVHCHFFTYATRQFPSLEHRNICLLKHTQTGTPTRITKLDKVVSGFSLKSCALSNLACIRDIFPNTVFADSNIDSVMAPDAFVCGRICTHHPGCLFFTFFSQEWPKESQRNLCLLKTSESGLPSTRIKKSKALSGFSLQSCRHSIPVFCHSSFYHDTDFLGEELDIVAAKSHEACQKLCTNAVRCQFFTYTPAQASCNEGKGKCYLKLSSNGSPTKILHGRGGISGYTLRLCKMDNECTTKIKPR
T6 sequence (P08709 213-466 limits assumed): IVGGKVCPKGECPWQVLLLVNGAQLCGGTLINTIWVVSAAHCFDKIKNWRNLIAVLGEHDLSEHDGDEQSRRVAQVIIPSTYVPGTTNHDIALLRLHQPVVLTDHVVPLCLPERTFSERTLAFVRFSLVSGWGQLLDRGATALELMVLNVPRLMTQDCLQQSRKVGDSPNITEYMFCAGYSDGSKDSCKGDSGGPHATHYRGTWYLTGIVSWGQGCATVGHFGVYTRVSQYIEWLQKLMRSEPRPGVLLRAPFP
T6 sequence (P08709 61-212 partner limits assumed): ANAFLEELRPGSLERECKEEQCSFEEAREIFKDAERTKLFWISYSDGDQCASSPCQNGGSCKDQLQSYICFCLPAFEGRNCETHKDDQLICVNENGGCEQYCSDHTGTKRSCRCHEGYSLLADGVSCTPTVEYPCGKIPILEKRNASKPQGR
T6 sequence (P13726 33-295 partner): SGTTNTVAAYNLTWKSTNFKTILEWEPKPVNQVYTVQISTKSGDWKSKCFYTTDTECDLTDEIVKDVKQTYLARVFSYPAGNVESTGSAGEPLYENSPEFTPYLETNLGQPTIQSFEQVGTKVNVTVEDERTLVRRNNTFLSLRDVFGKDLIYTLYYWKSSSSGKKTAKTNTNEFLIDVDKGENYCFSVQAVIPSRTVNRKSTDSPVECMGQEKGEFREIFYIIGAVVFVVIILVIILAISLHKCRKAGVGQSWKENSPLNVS
T1 sequence (P03952 391-638 limits assumed): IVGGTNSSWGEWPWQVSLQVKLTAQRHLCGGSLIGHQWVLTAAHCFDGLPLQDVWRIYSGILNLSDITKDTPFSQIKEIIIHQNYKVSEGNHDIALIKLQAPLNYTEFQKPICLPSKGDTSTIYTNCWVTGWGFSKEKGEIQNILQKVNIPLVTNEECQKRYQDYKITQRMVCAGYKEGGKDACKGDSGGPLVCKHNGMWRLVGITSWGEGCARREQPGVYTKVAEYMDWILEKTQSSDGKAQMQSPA
T1 sequence (P03952 20-390 partner limits assumed): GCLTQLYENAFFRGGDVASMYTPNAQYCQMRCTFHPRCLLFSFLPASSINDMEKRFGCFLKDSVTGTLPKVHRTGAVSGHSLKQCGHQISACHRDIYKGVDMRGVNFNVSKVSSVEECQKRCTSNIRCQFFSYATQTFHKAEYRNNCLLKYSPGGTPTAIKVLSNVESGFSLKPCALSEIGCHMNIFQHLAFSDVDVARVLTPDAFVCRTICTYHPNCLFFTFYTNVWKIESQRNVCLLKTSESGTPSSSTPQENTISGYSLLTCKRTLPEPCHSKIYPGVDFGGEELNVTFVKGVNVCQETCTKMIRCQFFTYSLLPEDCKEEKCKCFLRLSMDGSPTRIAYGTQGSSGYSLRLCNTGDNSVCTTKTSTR

For CC(C)(C)OC(=O)N[C@@H](CC(=O)O)C(=O)N1CCC[C@H]1C(=O)N[C@H](C=O)CCCNC(=N)N [Compound 9, N-t-butyloxycarbonyl-L-Asp-L-Pro-L-argininal] (Boc-Asp-Pro-Arg-aldehyde), the IC50 (human kallekrein; [4]) was 17 µM, the “Calculated % Selectivity Kallikrein” value (human kallekrein; [5]) was 0.08% and the IC50 (bovine thrombin; [4]) was 17 µM. For the same compound, the “Calculated % Selectivity Thrombin” value (bovine thrombin; [5]) was 0.08%, the “IC50 Protein C” value [1, 4] was “Inact” and the “Calculated % Selectivity Protein C” value [1, 5] was 0%. The IC50 (human Factor XIa; [4]) was 12 µM, the “Calculated % Selectivity XIa” value (human Factor XIa; [5]) was 0.12% and the IC50 (human urokinase; [4]) was 25 µM. The “Calculated % Selectivity UK” value (human urokinase; [5]) was 0.06%, the “IC50 VIIA” value (Factor VIIa:rTF complex; [4]) was “Inact” and the “Calculated % Selectivity VIIa” value (Factor VIIa:rTF complex; [5]) was 0%. The “IC50 tPA” value [2, 4] was “Inact”, the “Calculated % Selectivity tPA” value [2, 5] was 0% and the Ki [3] was 0.00045 µM. The IC50 (plasmin; [4]) was 1.4 µM and the “Calculated % Selectivity Plasmin” value (plasmin; [5]) was 1%.
